# According to patent US11293870B2, “Vital stain” (Mie University, priority 2013, dated 2022):
# Entries after “also recorded” stand apart in the source; their conditions may differ. Where two headings read alike, the source gives them in different places.
# Legend:
# Large intestine = test: Evaluation of dye compound stainability under multiphoton laser microscope, large intestine mucosal surface; format: in vivo; conditions: mucosal surface of mouse large intestine; 5 mg/ml for curcumin, 1 mg/ml for other dyes
# Method: Drinking water containing 2% (w/v) dextran sodium sulfate (DSS) was given to 8-week-old C57B6 mice (male, approximately 20 g) for 7 days. After intraperitoneal injection of 0.2 ml of 5% chloral hydrate for anesthesia, the mouse abdominal wall was incised vertically to about 1 cm, and the gastrointestinal tract was raised over the abdominal wall to about 1 cm. Blood flow to the gastrointestinal tract was maintained during this time by the blood vessel flowing into the mesenteric attachment site. The gastrointestinal tract was incised vertically to about 1 cm on opposite side of the mesenteric attachment site, including the tunica muscularis and mucosa. The opposite side of the mesenteric attachment site was incised in order to prevent severance and damage of the blood vessel and minimize bleeding. When the incision site of the gastrointestinal tract was opened vertically, the mucosal surface of the gastrointestinal tract, as the food channel, became visible. When food digestion products were present they were wiped off with tissue paper.
# In order to more clearly observe the gastrointestinal tract mucosal surface, a 1% pronase solution was dropped onto the mucosal surface and was allowed to stand still for 15 minutes. This pronase treatment removed the mucus from the mucosal surface, rendering the cell structure more easily visible. […]
# [1] = test system: cancer lesion site versus normal mucosa of large intestine; test: Comparison of staining patterns in normal site and cancer tumor site of large intestine; format: in vivo, mouse; conditions: for Staining of cancer lesion sites compared with normal mucosa: Example 1, regardless of pronase treatment of the mucosal surface; for Staining of cancer lesion site compared with normal mucosa: Example 3
# Method: Drinking water containing 2% (w/v) dextran sodium sulfate (DSS) was given to 8-week-old C57B6 mice (male, approximately 20 g) for 7 days. After intraperitoneal injection of 0.2 ml of 5% chloral hydrate for anesthesia, the mouse abdominal wall was incised vertically to about 1 cm, and the gastrointestinal tract was raised over the abdominal wall to about 1 cm. Blood flow to the gastrointestinal tract was maintained during this time by the blood vessel flowing into the mesenteric attachment site. The gastrointestinal tract was incised vertically to about 1 cm on the opposite side of the mesenteric attachment site, including the tunica muscularis and mucosa. The opposite side of the mesenteric attachment site was incised in order to prevent severance and damage of the blood vessel and minimize bleeding. When the incision site of the gastrointestinal tract was opened vertically, the mucosal surface of the gastrointestinal tract, as the food channel, became visible. When food digestion products were present they were wiped off with tissue paper. In order to more clearly observe the gastrointestinal tract mucosal surface, a 1% pronase solution was dropped onto the mucosal surface and was allowed to stand still for 15 minutes. This pronase treatment removed the mucus from the mucosal surface, rendering the cell structure more easily visible. Next, the pronase was removed from the mucosal surface and rinsed with physiological saline (PBS). A metal ring (outer diameter: 16 millimeters, inner diameter, 6 millimeters) was placed on a laboratory stage, and a rapid bonding adhesive (AronAlpha) was coated over the entire periphery of the surface on one side. Forceps were used to hold the rapid bonding adhesive-coated metal ring with the adhesive-coated surface facing downward, and it was set on the pronase-treated mucosal surface. During a period of about 5 minutes, the metal ring became anchored to the mucosa with the rapid bonding adhesive, and the region where the dye compound was to be applied was rinsed with PBS. […] FIG. 32 is a drawing for illustration of a stainability evaluation step for the aforementioned dye compounds. […] Z stack image). […] Both of the staining photographs of the normal site and cancer tumor site were taken under the same conditions.
# [2] = test system: epithelial cells/adenocytes and connective tissue/capillaries; test: Preferential staining of epithelial cells/adenocytes or connective tissue/capillaries; format: in vivo, mouse; conditions: 5 mg/ml for curcumin, 1 mg/ml for all other dyes
# Method: A metal ring (outer diameter: 16 millimeters, inner diameter, 6 millimeters) was placed on a laboratory stage, and a rapid bonding adhesive (AronAlpha) was coated over the entire periphery of the ring surface on one side. Forceps were used to hold the rapid bonding adhesive-coated metal ring with the adhesive-coated surface facing downward, and it was set on the pronase-treated mucosal surface. During a period of about 5 minutes, the metal ring became anchored to the mucosa with the rapid bonding adhesive, and the region where the dye compound was to be applied was rinsed with PBS.
# In order to avoid drying of the mucosal surface, a curcumin stock solution or sulfuretin stock solution diluted with physiological saline (PBS) (see Tables 1 to 3 for the dilution factors) was added dropwise onto the pronase-treated mucosal surface, and after allowing it to stand for 1 minute, it was rinsed 3 times with PBS, a cover glass was placed over the metal ring, and the objective lens of a multiphoton laser microscope (FV1000 MPE by Olympus Corp.) was brought near to the top of the cover glass for image observation.
# The procedure from administration of the dye compound to observation was conducted as described above under “Evaluation of stainability” (same hereunder). Also, the administered concentration of dye to the mucosal surface was 5 mg/ml for curcumin as Dye No. 1, and 1 mg/ml for all of the other dyes.
# mucosal surfaces = test: Photon dose necessary to obtain fluorescent images of dye-coated mucosal surfaces; format: in vivo, mouse; conditions: mucosal surfaces coated with dye
# [3] = cited from earlier work
# [4] = test system: mouse bladder epithelial cells; test: Multiphoton laser microscope imaging of stained bladder epithelial cells; conditions: laser power of 3%
# [5] = test system: mouse tracheal epithelial cells; test: Multiphoton laser microscope imaging of stained tracheal epithelial cells; conditions: laser power of 3%
# [6] = test system: human gastric mucosa (normal site and stomach cancer site); test: Staining of surgically excised fresh human gastric mucosa; conditions: laser power of 1%
# Source text: Similar staining also occurred with surgically excised fresh human gastric mucosa. […] The centers of the circular structures are the exits of the fundic glands. It was thus possible to confirm the characteristic of normal tissue whereby epithelial cells arrange in a circular manner without disparate sizes. […] The blackened elliptical portions in each cell are the nuclei.
# Pluripotent hepatocytes = test: Undifferentiated cell staining of pluripotent hepatocytes; format: cell-based
# Source text: Pluripotent stem cells such as iPS cells, ES cells or tissue-derived stem cells are considered promising for application and development in regenerative medicine, and for example, when a cell population is to be formed from iPS cells, differentiated into tissue cells that are destined to be transplanted, it is currently the case that iPS cell-derived differentiation-induced tissue cell populations partially contain undifferentiated cells that have not completely differentiated to the desired tissue cells, cells that have differentiated to cells other than the desired tissue cells, and the original iPS cells that have undergone essentially no differentiation. It has been pointed out that when such undifferentiated cells or original iPS cells are transplanted as is into the body, they can potentially become cancerated in the future. Thus, when an iPS cell-derived differentiation-induced tissue cell population is to be used for transplantation, undifferentiated cells or original iPS cells remaining in the transplanted cell population are preferably identified and confirmed, and also eliminated.
# [7] = test system: MDCK-GFP-Ras^V12 cells mixed with MDCK normal cells; test: In vitro assay of MDCK-Ras^V12 cancerized cell small aggregates as a very early cancer model; format: cell-based, canine
# Method: The MDCK normal cells were cultured in a 10 cm dish, and the MDCK-GFP-Ras^V12 cells were cultured in a 6 cm dish. The culture solution used for the MDCK normal cells was DMEM (containing Phenol Red)+10% FBS+penicillin/streptomycin.
# The solution used for the MDCK-GFP-Ras^V12 cells was DMEM (containing Phenol Red)+10% FBS+penicillin/streptomycin+Zeocin (400 μg/ml)+blasticidin (5 μg/ml). […] The seeding was carried out using a DMEM+10% FBS+penicillin/streptomycin culture solution, to 1.0 to 3.0×10^4 cells per well of the 96-well dish. Tetracycline at a concentration of 2 μg/ml was added to the culture solution after 4 days when seeding was to 1.0×10^4 or after 1 day when seeding was to 3.0×10^4, and GFP-Ras^V12 was expressed, forming cancerized cell small aggregates among the MDCK normal cells (NPL 3). After 18 to 36 hours, the cells in each of the wells were rinsed 3 times with 200 μl of PBS, and then the Prestwick Chemical Library compounds and the Ministry of Health, Labour and Welfare-approved food additives, each diluted to 1 μM with a 100 μl volume of PBS, were added to the respective wells and taken up by the cells for 5 minutes at room temperature. They were then rinsed 3 times with 200 μl of PBS, and in certain cases further rinsed once with 100 μl of DMEM without Phenol Red, and observed under a multiphoton laser microscope.
# [8] = without pronase treatment, cancer 2 to 4 millimeters in diameter
SMILES,Excitation by multiphoton laser and brightness of image (Large intestine),Staining of cancer lesion sites compared with normal mucosa [1],"Staining of cancer lesion site compared with normal mucosa [1, 8]",Cell group preferentially stained (epithelial cells/adenocytes or connective tissue/capillaries) [2],Photon dose necessary to obtain fluorescent images compared to non-staining (mucosal surfaces),"LD50 ([3]; mouse, in vivo, po)",Staining of cancer lesion site compared with normal mucosa ([1]; after 15 minutes treatment with 1% pronase MS),Image quality of stained cells [4],Image quality of stained cells [5],Staining of normal gastric mucosa site [6],Staining of stomach cancer site [6],Staining of pluripotent hepatocytes (Pluripotent hepatocytes),Cancer cell staining intensity relative to normal cell staining intensity ([7]; FIG. 19),"Staining of GFP-Ras^V12 positive cancerized cells versus MDCK normal cells ([7]; Ministry of Health, Labour and Welfare-approved food additives, 1 mg/ml, excitation 750, 800, 850, 900 nm, red fluorescence)","LD50 ([3]; Mouse, Intra-abdominal)"
O=C1/C(=C/c2ccc(O)c(O)c2)Oc2cc(O)ccc21 [Sulfuretin],strongly excited by a multiphoton laser and provided bright images,stained cancer lesion sites much more intensely than normal mucosa,stained the cancer lesion site significantly more intensely than the normal mucosa,intensely stained epithelial cells/adenocytes and faintly stained connective tissue/capillaries,4%,300 mg/kg,,,,,,,,,
COc1cc(/C=C/C(=O)CC(=O)/C=C/c2ccc(O)c(OC)c2)ccc1O [curcumin],strongly excited by a multiphoton laser and provided bright images,stained cancer lesion sites much more intensely than normal mucosa,stained the cancer lesion site significantly more intensely than the normal mucosa,intensely stained epithelial cells/adenocytes and faintly stained connective tissue/capillaries,3%,,stained the cancer lesion site significantly more intensely than the normal mucosa,an image with sufficient brightness and contrast for diagnosis was obtained,an image with sufficient brightness and contrast for diagnosis was obtained,the circularly arranged normal epithelial cells are stained,cancer cells are stained,,,,
"O=C([O-])c1c(Cl)c(Cl)c(Cl)c(Cl)c1-c1c2cc(Br)c(=O)c(Br)c-2oc2c(Br)c([O-])c(Br)cc12.[Na+].[Na+] [Red #104, phloxine]",,,,preferentially stained epithelial cells/adenocytes,,,,,,,,exhibit undifferentiated cell staining,6.7 times,labeled GFP-Ras^V12-positive cancerized cell small aggregates more intensely than normal cells; also recorded: All GFP-Ras^V12 positive cells stained with Red #104,310 mg/kg
